Test results as given in ChEMBL document CHEMBL1123236, “Cardiac glycosides. 7. Sugar stereochemistry and cardiac glycoside activity” (J Med Chem, 1986).

Molecular target: Sodium/potassium-transporting ATPase
Assay: Inhibition of hog kidney Na+, K+-dependent ATPase
Assay type: protein-complex assay, Sus scrofa
Details: read-out: I50

Structure (SMILES) | IC50
C[C@H]1O[C@@H](O[C@H]2CC[C@@]3(C)[C@H](CC[C@@H]4[C@@H]3CC[C@]3(C)[C@@H](C5=CC(=O)OC5)CC[C@]43O)C2)C[C@H](O)[C@@H]1O | 7.04 nM
C[C@]12CC[C@H](O[C@@H]3O[C@@H](CO)[C@H](O)[C@@H](O)[C@H]3O)C[C@H]1CC[C@@H]1[C@@H]2CC[C@]2(C)[C@@H](C3=CC(=O)OC3)CC[C@]12O | 87 nM
C[C@]12CC[C@H](O[C@H]3O[C@H](CO)[C@@H](O)[C@H](O)[C@H]3O)C[C@H]1CC[C@@H]1[C@@H]2CC[C@]2(C)[C@@H](C3=CC(=O)OC3)CC[C@]12O (stereo in doubt; 3c) | 129 nM
C[C@]12CC[C@H](O[C@H]3O[C@H](CO)[C@@H](O)[C@H](O)[C@H]3O)C[C@H]1CC[C@@H]1[C@@H]2CC[C@]2(C)[C@@H](C3=CC(=O)OC3)CC[C@]12O (stereo in doubt; 3d) | 38.9 nM
C[C@]12CC[C@H](O[C@H]3O[C@H](CO)[C@@H](O)[C@H](O)[C@H]3O)C[C@H]1CC[C@@H]1[C@@H]2CC[C@]2(C)[C@@H](C3=CC(=O)OC3)CC[C@]12O (stereo in doubt; 4a) | 60.3 nM
C[C@]12CC[C@H](O[C@H]3O[C@H](CO)[C@@H](O)[C@H](O)[C@H]3O)C[C@H]1CC[C@@H]1[C@@H]2CC[C@]2(C)[C@@H](C3=CC(=O)OC3)CC[C@]12O (stereo in doubt; 4b) | 16 nM
C[C@]12CC[C@H](O[C@H]3O[C@H](CO)[C@@H](O)[C@H](O)[C@H]3O)C[C@H]1CC[C@@H]1[C@@H]2CC[C@]2(C)[C@@H](C3=CC(=O)OC3)CC[C@]12O (stereo in doubt; 4c) | 93.3 nM
C[C@]12CC[C@H](O[C@H]3O[C@H](CO)[C@@H](O)[C@H](O)[C@H]3O)C[C@H]1CC[C@@H]1[C@@H]2CC[C@]2(C)[C@@H](C3=CC(=O)OC3)CC[C@]12O (stereo in doubt; 4d) | 10.5 nM
CC12CCC(O[C@H]3O[C@H](CO)[C@H](O)[C@H](O)[C@H]3O)CC1CCC1C2CC[C@]2(C)C(C3=CC(=O)OC3)CCC12O (stereo in doubt; form 1) | 64.5 nM
C[C@@H]1O[C@@H](O[C@H]2CC[C@@]3(C)[C@H](CC[C@@H]4[C@@H]3CC[C@]3(C)[C@@H](C5=CC(=O)OC5)CC[C@]43O)C2)[C@H](O)[C@H](O)[C@H]1O (stereo in doubt; form 1) | 4.79 nM
CC12CCC(O[C@H]3O[C@H](CO)[C@H](O)[C@H](O)[C@H]3O)CC1CCC1C2CC[C@]2(C)C(C3=CC(=O)OC3)CCC12O (stereo in doubt; form 2) | 17.8 nM
C[C@@H]1O[C@@H](O[C@H]2CC[C@@]3(C)[C@H](CC[C@@H]4[C@@H]3CC[C@]3(C)[C@@H](C5=CC(=O)OC5)CC[C@]43O)C2)[C@H](O)[C@H](O)[C@H]1O (stereo in doubt; form 2) | 6.79 nM
C[C@]12CC[C@H](O[C@@H]3O[C@@H](CO)[C@@H](O)[C@H](O)[C@@H]3O)C[C@H]1CC[C@@H]1[C@@H]2CC[C@]2(C)[C@@H](C3=CC(=O)OC3)CC[C@]12O (stereo in doubt; form 2) | 10.7 nM
